# Values of other authors, collected in patent US20250143905A1, “TOPICAL TREATMENT FOR ANORECTAL DISORDERS WITH AND WITHOUT SEAT CUSHION” (priority 2019, published 2025).
# System: PPAR-γ
# Details: septic rats; pretreatment with curcumin for 3 days at 0.24 μmol/kg body weight; liver
smiles,measurement,value
COc1cc(/C=C/C(=O)CC(=O)/C=C/c2ccc(O)c(OC)c2)ccc1O [curcumin],increase in PPAR-γ mRNA levels,45%
same,increase in PPAR-γ protein levels,65%
